According to patent US12491209B2, “Dissolved C60 and method of producing dissolved C60” (Innovation for Success, LLC, priority 2019, dated 2025):
Values after ≈ are worked out from the molar mass of the structure shown. Like-named read-outs stand apart in the source and are kept apart here.

Key:
[1] = Solubility of C60 in limonene composition / d-limonene by heating method 200; type: physicochemical
Source text: As shown in the flowchart of FIG. 2 and with additional reference to FIG. 3, a method 200 for dissolving C60 304 in a liquid medium that is non-toxic and safe for human consumption includes combining C60 304 with a limonene composition 308 to form a C60 mixture 312. (Block 204). The limonene composition 308 is discussed in connection with the method 200, but the limonene composition 308 may be substituted with orange terpenes or other edible and non-toxic terpenes (or terpene containing liquids). The limonene composition 308 is used over orange terpenes, because the limonene composition 308 has a more pleasant and less bitter taste. In one embodiment, the limonene composition 308 is at least 95% d-limonene by volume, with the remaining 5% including any other liquid, such as limonene, flavoring, fragrances, and the like. In another embodiment, the limonene composition 308 is at least 75% d-limonene with the remaining 25% including any other liquid, such as limonene, flavoring, fragrances, and the like.
At block 204 of the method 200, the C60 304 is pulverized into a powdered form and combined with the liquid limonene composition 308 in a glass vessel (not shown) or any other heat-safe and non-reactive container. Additionally or alternatively, the C60 304 is not pulverized and is added to the limonene composition 308 in granular, chunky, or crystalline state. […]

[2] = cited from earlier work
[3] = C60 molecules diffuse out of the body; cited from earlier work
[4] = per single C60 molecule; cited from earlier work
[5] = test system: IgE; conditions: animal models, applied topically; cited from earlier work

## c12c3c4c5c1c1c6c7c2c2c8c3c3c9c4c4c%10c5c5c1c1c6c6c%11c7c2c2c7c8c3c3c8c9c4c4c9c%10c5c5c1c1c6c6c%11c2c2c7c3c3c8c4c4c9c5c1c1c6c2c3c41 [C60, Buckminsterfullerene]
[1]; room temperature 70° F. (21° C.)
  dissolution of C60 into the limonene composition without heating: does not dissolve to any significant extent
[1]; solvent d-limonene, results achieved by method 200
  Solubility Limit: 16670 µg/mL (≈ 23100 µM)
[2]; solvent 1,2-dichlorobenzene
  Solubility Limit: 27000 µg/mL (≈ 37500 µM)
[2]; solvent 1-chloronaphthalene
  Solubility Limit: 41000 µg/mL (≈ 56900 µM)
[2]; solvent 1-methylnaphthalene
  Solubility Limit: 33000 µg/mL (≈ 45800 µM)
[2]; solvent acetone
  Solubility Limit: 1 µg/mL (≈ 1.39 µM)
[2]; solvent anisole
  Solubility Limit: 5600 µg/mL (≈ 7770 µM)
[2]; solvent benzene
  Solubility Limit: 1700 µg/mL (≈ 2360 µM)
[2]; solvent benzonitrile
  Solubility Limit: 410 µg/mL (≈ 569 µM)
[2]; solvent carbon disulfide
  Solubility Limit: 7900 µg/mL (≈ 11000 µM)
[2]; solvent carbon tetrachloride
  Solubility Limit: 447 µg/mL (≈ 620 µM)
[2]; solvent chloroform
  Solubility Limit: 160 µg/mL (≈ 222 µM)
[2]; solvent cyclohexane
  Solubility Limit: 36 µg/mL (≈ 50 µM)
[2]; solvent decalins
  Solubility Limit: 4600 µg/mL (≈ 6380 µM)
[2]; solvent dichloromethane
  Solubility Limit: 260 µg/mL (≈ 361 µM)
[2]; solvent ethanol
  Solubility Limit: 1.4 µg/mL (≈ 1.94 µM)
[2]; solvent isopropanol
  Solubility Limit in mg/ml: ND (“ND” indicates that C60 in insoluble in the identified solvent)
[2]; solvent methanol
  Solubility Limit in mg/ml: ND (“ND” indicates that C60 in insoluble in the identified solvent)
[2]; solvent n-decane
  Solubility Limit: 71 µg/mL (≈ 98.5 µM)
[2]; solvent n-hexane
  Solubility Limit: 43 µg/mL (≈ 59.7 µM)
[2]; solvent n-pentane
  Solubility Limit: 5 µg/mL (≈ 6.94 µM)
[2]; solvent octanol
  Solubility Limit: 42.9 µg/mL (≈ 59.5 µM)
[2]; solvent tetrachloromethane
  Solubility Limit: 320 µg/mL (≈ 444 µM)
[2]; solvent tetrahydrofuran
  Solubility Limit in mg/ml: ND (“ND” indicates that C60 in insoluble in the identified solvent)
[2]; solvent tetralin
  Solubility Limit: 16000 µg/mL (≈ 22200 µM)
[2]; solvent toluene
  Solubility Limit: 2800 µg/mL (≈ 3890 µM)
[2]; solvent water
  Solubility Limit: 1.3e-08 µg/mL (≈ 1.8e-08 µM)
[2]; solvent xylene
  Solubility Limit: 5200 µg/mL (≈ 7220 µM)
[3]
  residence time in the body: about five
[4]
  free electrons / methyl radicals absorbed per C60 molecule: up to thirty-four
[5]
  IgE reduction: reduce IgE significantly
